Structures can show the parent of a compound that is named as a salt. Bridge positions count the residues as written; N and C are the ends. Square brackets hold non-standard residues; d marks the D form. Peptide text beside a SMILES is read from it. * marks the point of attachment. ξ: configuration not given here. ξβ3hGly(cHex) = NC(CC(=O)*)C1CCCCC1; Cyclohexylacetyl = O=C(CC1CCCCC1)*; Thr(3ξ) = CC(O)[C@H](N)C(=O)O; Octanoyl = CCCCCCCC(=O)*; Dab = NCC[C@H](N)C(=O)O; X4 = NC1CCCC1C(=O)*

Common to all, as to experiment: MIC, compound in combination with a second agent (broth microdilution)
Holding throughout (type): cell-based
A general note: Dilution methods test growth across graded concentrations, often in twofold steps.

One assay has as its system Acinetobacter baumannii. As to conditions: 1:1 (wt:wt) combination with Rifampicin. An outline of the steps: (§1)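 Broth microdilution with inoculum from 18-24 h Mueller-Hinton agar colonies adjusted to 0.5 McFarland, up to four strains per species. Compound combined 1:1 w/w with second agent (e.g. rifampicin), mass as salt form; MIC is total drug concentration. Duplicates, lower value reported if within 2-fold; modal value for repeat tests.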

For the next assay, the system named is Escherichia coli. The conditions noted are these: 1:1 (wt:wt) combination with Rifampicin. An outline of the steps:
as §1

The subject of the next assay is Klebsiella pneumoniae. The conditions noted are these: for MIC K. pneumoniae ATCC 4352: strain ATCC 4352. An outline of the steps: as §1
A further assay deals with Pseudomonas aeruginosa. As to conditions: 1:1 (wt:wt) combination with Rifampicin. An outline of the steps: as §1
Setting [1] is: MIC = total drug concentration, strain ATCC BAA-747.
Setting [2] is: MIC = total drug concentration, strain CCUG57249.
Where [3] appears, read: MIC = total drug concentration, strain NCTC 13423.
Setting [4] is: MIC = total drug concentration, strain NCTC 13424.
Where [5] appears, read: MIC = total drug concentration, strain ATCC25922.
Setting [6] is: MIC = total drug concentration, strain NCTC9001.
[7] abbreviates: 1:1 (wt:wt) combination with Rifampicin, MIC = total drug concentration.
The mark [8] stands for this setting: 1:1 (wt:wt) combination with Rifampicin, MIC = total drug concentration, strain ATCC-BAA-2146.
[9] abbreviates: 1:1 (wt:wt) combination with Rifampicin, MIC = total drug concentration, strain CCUG-59348.
[10] abbreviates: Ratio of Compound to Rifampicin 1:1, total drug concentration.
[11] abbreviates: Ratio of Compound to Rifampicin 1:3, total drug concentration.
The mark [12] stands for this setting: Ratio of Compound to Rifampicin 3:1, total drug concentration.
The mark [13] stands for this setting: MIC = total drug concentration, strain ATCC 27853.
[14] abbreviates: MIC = total drug concentration, strain ATCC CRM-9027.
The mark [15] stands for this setting: MIC = total drug concentration, strain ATCC-47.
The mark [16] stands for this setting: MIC = total drug concentration, strain CCUG 59626.
The mark [17] stands for this setting: MIC is total drug concentration.
Setting [18] is: 1:1 (wt:wt) combination with Rifampicin, MIC is total drug concentration.

Turning to “Polymyxin B nonapeptide [PMBN, reference compound]”, the “MIC A. baumannii ATCC BAA-747” value in the assay with Acinetobacter baumannii (setting [1]) is on record as 0.25 micrograms/mL. The “MIC A. baumannii CCUG57249” value in the assay on Acinetobacter baumannii (setting [2]) is 1 micrograms/mL. The “MIC A. baumannii NCTC 13423” value in the assay with Acinetobacter baumannii (setting [3]) stood at 0.5 micrograms/mL. In addition, the “MIC A. baumannii NCTC 13424” value in the assay on Acinetobacter baumannii (setting [4]) turned out to be 0.5 micrograms/mL. For the same compound, the “MIC E. coli ATCC25922” value with Escherichia coli (setting [5]) is listed as 0.5 micrograms/mL. Also, the “MIC E. coli NCTC9001” value in the assay on Escherichia coli (setting [6]) is given as 1 micrograms/mL. Moreover, the “MIC K. pneumoniae ATCC 4352” value with Klebsiella pneumoniae (setting [7]) was determined as 0.25 micrograms/mL. The “MIC K. pneumoniae ATCC-BAA-2146” value is listed as 1 micrograms/mL in the assay with Klebsiella pneumoniae (setting [8]), 2 micrograms/mL in the assay on Klebsiella pneumoniae (setting [10]), 2 micrograms/mL in the assay with Klebsiella pneumoniae (setting [11]) and 2 micrograms/mL in the assay with Klebsiella pneumoniae (setting [12]). Further, the “MIC K. pneumoniae CCUG-59348” value with Klebsiella pneumoniae (setting [9]) is on record as 4 micrograms/mL; in the assay on Klebsiella pneumoniae (setting [10]), 4 micrograms/mL; in the assay on Klebsiella pneumoniae (setting [11]), 4 micrograms/mL; in the assay with Klebsiella pneumoniae (setting [12]), 8 micrograms/mL. Moreover, the “MIC K. pneumoniae NCTC 13438” value in the assay with Klebsiella pneumoniae (setting [10]), in the assay on Klebsiella pneumoniae (setting [11]) and in the assay on Klebsiella pneumoniae (setting [12]) was 2 micrograms/mL throughout. In the assay on Pseudomonas aeruginosa (setting [13]), the “MIC P. aeruginosa ATCC 27853” value was found to be 0.125 micrograms/mL. Further, the “MIC P. aeruginosa ATCC CRM-9027” value in the assay with Pseudomonas aeruginosa (setting [14]) amounted to 0.125 micrograms/mL. Further, the “MIC P. aeruginosa ATCC-47” value in the assay on Pseudomonas aeruginosa (setting [15]) amounted to 0.25 micrograms/mL. The “MIC P. aeruginosa CCUG 59626” value in the assay with Pseudomonas aeruginosa (setting [16]) came out at 0.125 micrograms/mL.
On to `CCCCCCCC(=O)N[C@H](C(=O)N[C@H](CO)C(=O)N[C@H]1CCNC(=O)[C@H](C(C)O)NC(=O)[C@H](CCN)NC(=O)[C@H](CCN)NC(=O)[C@H](CC(C)C)NC(=O)[C@@H](Cc2ccccc2)NC(=O)[C@H](CCN)NC1=O)C(C)O` (stereo partly shown) [Example C1, NAB-739 TFA salt, reference compound] (Octanoyl-[Thr(3ξ)][dS][Dab][Dab][dF]L[Dab][Dab][Thr(3ξ)]; lactam 3-C), for which the “MIC A. baumannii ATCC BAA-747” value in the assay on Acinetobacter baumannii (setting [1]) is 0.5 micrograms/mL. For the same compound, the “MIC A. baumannii CCUG57249” value in the assay on Acinetobacter baumannii (setting [2]) was 0.5 micrograms/mL. Moreover, in the assay with Acinetobacter baumannii (setting [3]), the “MIC A. baumannii NCTC 13423” value was found to be 0.5 micrograms/mL. Further, the “MIC A. baumannii NCTC 13424” value in the assay on Acinetobacter baumannii (setting [4]) turned out to be 0.5 micrograms/mL. Also, in the assay with Escherichia coli (setting [5]), the “MIC E. coli ATCC25922” value was determined as 0.5 micrograms/mL. Moreover, in the assay on Escherichia coli (setting [6]), the “MIC E. coli NCTC9001” value amounted to 1 micrograms/mL. In addition, the “MIC K. pneumoniae ATCC 4352” value in the assay with Klebsiella pneumoniae (setting [7]) is 0.5 micrograms/mL. For the same compound, in the assay on Klebsiella pneumoniae (setting [8]), the “MIC K. pneumoniae ATCC-BAA-2146” value amounted to 2 micrograms/mL. In addition, the “MIC K. pneumoniae CCUG-59348” value in the assay with Klebsiella pneumoniae (setting [9]) stood at 4 micrograms/mL. For the same compound, in the assay on Pseudomonas aeruginosa (setting [13]), the “MIC P. aeruginosa ATCC 27853” value turned out to be 2 micrograms/mL. The “MIC P. aeruginosa ATCC CRM-9027” value in the assay on Pseudomonas aeruginosa (setting [14]) was determined as 2 micrograms/mL. Moreover, the “MIC P. aeruginosa ATCC-47” value in the assay with Pseudomonas aeruginosa (setting [15]) was found to be 4 micrograms/mL. The “MIC P. aeruginosa CCUG 59626” value in the assay on Pseudomonas aeruginosa (setting [16]) is 2 micrograms/mL.
`CC(C)C[C@@H]1NC(=O)[C@@H](Cc2ccccc2)NC(=O)[C@H](CCN)NC(=O)[C@@H](NC(=O)[C@H](CCN)NC(=O)[C@@H](NC(=O)CC2CCCCC2)C(C)O)CCNC(=O)[C@H](C(C)O)NC(=O)[C@H](CCN)NC(=O)[C@H](CCN)NC1=O` (stereo partly shown) [Example C4, Cyclohexyl ethanoyl polymyxin B nonapeptide, TFA salt, reference compound] (Cyclohexylacetyl-[Thr(3ξ)][Dab][Dab][Dab][dF]L[Dab][Dab][Thr(3ξ)]; lactam 3-C): in the assay on Acinetobacter baumannii (setting [17]), the “MIC A. baumannii ATCC BAA-747” value is 0.25 micrograms/mL, the “MIC A. baumannii CCUG57249” value turned out to be 0.25 micrograms/mL, the “MIC A. baumannii NCTC 13423” value was determined as 0.125 micrograms/mL and the “MIC A. baumannii NCTC 13424” value turned out to be 0.25 micrograms/mL. In the assay on Escherichia coli (setting [17]), the “MIC E. coli ATCC25922” value was found to be 0.25 micrograms/mL and the “MIC E. coli NCTC9001” value is recorded as 0.5 micrograms/mL. In the assay with Klebsiella pneumoniae (setting [18]), the “MIC K. pneumoniae ATCC-BAA-2146” value came to 1 micrograms/mL, the “MIC K. pneumoniae CCUG-59348” value was 2 micrograms/mL and the “MIC K. pneumoniae NCTC 13438” value is 0.5 micrograms/mL. Further, in the assay on Pseudomonas aeruginosa (setting [17]), the “MIC P. aeruginosa ATCC 27853” value worked out at 0.5 micrograms/mL, the “MIC P. aeruginosa ATCC CRM-9027” value amounted to 0.5 micrograms/mL, the “MIC P. aeruginosa ATCC-47” value is given as 1 micrograms/mL and the “MIC P. aeruginosa CCUG 59626” value was found to be 0.25 micrograms/mL.
For the compound `CC(C)C[C@@H]1NC(=O)[C@@H](CC(C)C)NC(=O)[C@H](CCN)NC(=O)[C@@H](NC(=O)[C@H](CCN)NC(=O)[C@@H](NC(=O)CC(N)C2CCCCC2)C(C)O)CCNC(=O)[C@H](C(C)O)NC(=O)[C@H](CCN)NC(=O)[C@H](CCN)NC1=O` (stereo partly drawn) [Example 30, 3(R,S)-3-Amino-3-cyclohexane-propanoyl]Polymyxin E nonapeptide, TFA salt] ({ξβ3hGly(cHex)}-[Thr(3ξ)][Dab][Dab][Dab][dL]L[Dab][Dab][Thr(3ξ)]; lactam 3-C), the “MIC A. baumannii ATCC BAA-747” value with Acinetobacter baumannii (setting [1]) is on record as at most 0.06 micrograms/mL. In addition, in the assay with Acinetobacter baumannii (setting [2]), the “MIC A. baumannii CCUG57249” value turned out to be 0.125 micrograms/mL. For the same compound, in the assay with Acinetobacter baumannii (setting [3]), the “MIC A. baumannii NCTC 13423” value is given as at most 0.06 micrograms/mL. Further, in the assay on Acinetobacter baumannii (setting [4]), the “MIC A. baumannii NCTC 13424” value is recorded as below 0.06 micrograms/mL. Also, in the assay on Escherichia coli (setting [5]), the “MIC E. coli ATCC25922” value is on record as 0.25 micrograms/mL. The “MIC K. pneumoniae ATCC-BAA-2146” value in the assay with Klebsiella pneumoniae (setting [8]) was 0.25 micrograms/mL. The “MIC K. pneumoniae CCUG-59348” value with Klebsiella pneumoniae (setting [9]) is given as 2 micrograms/mL. The “MIC K. pneumoniae NCTC 13438” value in the assay with Klebsiella pneumoniae (1:1 (wt:wt) combination with Rifampicin, MIC = total drug concentration, strain NCTC 13438) stood at 0.5 micrograms/mL. Besides, the “MIC P. aeruginosa ATCC 27853” value with Pseudomonas aeruginosa (setting [13]) is given as 0.25 micrograms/mL. Besides, the “MIC P. aeruginosa ATCC CRM-9027” value in the assay on Pseudomonas aeruginosa (setting [14]) came out at 0.125 micrograms/mL. In addition, the “MIC P. aeruginosa ATCC-47” value in the assay on Pseudomonas aeruginosa (setting [15]) came out at 0.125 micrograms/mL. Moreover, the “MIC P. aeruginosa CCUG 59626” value in the assay on Pseudomonas aeruginosa (setting [16]) came to 0.25 micrograms/mL.
On to `CC(C)C[C@@H]1NC(=O)[C@@H](Cc2ccccc2)NC(=O)[C@H](CCN)NC(=O)[C@@H](NC(=O)[C@@H](CO)NC(=O)[C@@H](NC(=O)C2CCCC2N)C(C)O)CCNC(=O)[C@H](C(C)O)NC(=O)[C@H](CCN)NC(=O)[C@H](CCN)NC1=O` (stereo partly drawn) [Example 44, [2-Amino-cyclopentane-carbonyl]-L-Thr-D-Ser-polymyxin B hepatapeptide, TFA salt] (X4-[Thr(3ξ)][dS][Dab][Dab][dF]L[Dab][Dab][Thr(3ξ)]; lactam 3-C), for which the “MIC A. baumannii ATCC BAA-747” value in the assay on Acinetobacter baumannii (setting [1]) was 0.25 micrograms/mL. Moreover, in the assay with Acinetobacter baumannii (setting [2]), the “MIC A. baumannii CCUG57249” value was 0.125 micrograms/mL. Also, in the assay with Acinetobacter baumannii (setting [3]), the “MIC A. baumannii NCTC 13423” value came to 0.125 micrograms/mL. In addition, in the assay on Acinetobacter baumannii (setting [4]), the “MIC A. baumannii NCTC 13424” value worked out at 0.125 micrograms/mL. Also, the “MIC E. coli ATCC25922” value in the assay on Escherichia coli (setting [5]) was found to be 0.125 micrograms/mL. Moreover, the “MIC E. coli NCTC9001” value in the assay with Escherichia coli (setting [6]) was 0.5 micrograms/mL. In addition, the “MIC K. pneumoniae ATCC 4352” value in the assay on Klebsiella pneumoniae (setting [7]) is 0.125 micrograms/mL. Also, the “MIC K. pneumoniae ATCC-BAA-2146” value in the assay on Klebsiella pneumoniae (setting [8]) was determined as 1 micrograms/mL. Moreover, the “MIC K. pneumoniae CCUG-59348” value in the assay with Klebsiella pneumoniae (setting [9]) came out at 4 micrograms/mL. In addition, the “MIC P. aeruginosa ATCC 27853” value in the assay on Pseudomonas aeruginosa (setting [13]) came out at 0.5 micrograms/mL. The “MIC P. aeruginosa ATCC CRM-9027” value with Pseudomonas aeruginosa (setting [14]) is recorded as 0.5 micrograms/mL. In addition, in the assay on Pseudomonas aeruginosa (setting [15]), the “MIC P. aeruginosa ATCC-47” value stood at 1 micrograms/mL. In the assay with Pseudomonas aeruginosa (setting [16]), the “MIC P. aeruginosa CCUG 59626” value was 0.5 micrograms/mL.

Values taken from US10407467B2, “Polymyxin derivatives and their use in combination therapy together with different antibiotics” (priority 2013, dated 2019).
